Series [1] can be described thus: Anti-HCMV cytopathogenicity test: cytostatic effects on NHDF cells. Format: cell-based. Particulars: human, NHDF cells (human prepuce fibroblasts), maximum substance concentration with no visible cytostatic effects vs untreated cell control. On the procedure: Anti-HCMV (Anti-Human Cytomegalovirus) Cytopathogenicity Tests The test compounds are employed as 50 millimolar (mM) solutions in dimethyl sulfoxide (DMSO). Ganciclovir, foscarnet and cidofovir are used as reference compounds. After the addition of in each case 2 μl of the 50, 5, 0.5 and 0.05 mM DMSO stock solutions to 98 μl portions of cell culture medium in row […] for duplicate determinations, 1:2 dilutions are carried out with 50 μl portions of medium up to row 11 of the 96-well plate. The wells in rows 1 and 12 each contain 50 μl of medium. Then 150 μl of a suspension of 1×10^4 cells (human prepuce fibroblasts [NHDF]) are pipetted into each of the wells (row 1=cell control) and, in rows 2-12, a mixture of HCMV-infected and uninfected NHDF cells (M.O.I.=0.001-0.002), i.e. 1-2 infected cells per 1000 uninfected cells. Row 12 (without substance) serves as virus control. The final test concentrations are 250-0.0005 μM. The plates are incubated at 37° C./5% CO2 for 6 days, i.e. until all the cells in the virus controls are infected (100% cytopathogenic effect [CPE]). The wells are then fixed and stained by adding a mixture of formalin and Giemsa's dye (30 minutes), washed with double-distilled water and dried in a drying oven at 50° C. The plates are then assessed visually using an overhead microscope (Plaque Multiplier from Technomara). The following data can be acquired from the test plates: CC50 (NHDF)=maximum substance concentration in μM at which no visible cytostatic effects on the cells are evident by comparison with the untreated cell control;

In the next series the test system is HCMV. The series is described as follows: Anti-HCMV cytopathogenicity test (inhibition of CPE). Format: cell-based, human cytomegalovirus. The note with it: for EC50: Human betaherpesvirus 5, 144 h, concentration inhibiting the CPE by 50% vs untreated virus control, HCMV-infected NHDF cells, 6 days. The procedure: Anti-HCMV (Anti-Human Cytomegalovirus) Cytopathogenicity Tests The test compounds are employed as 50 millimolar (mM) solutions in dimethyl sulfoxide (DMSO). Ganciclovir, foscarnet and cidofovir are used as reference compounds. After the addition of in each case 2 μl of the 50, 5, 0.5 and 0.05 mM DMSO stock solutions to 98 μl portions of cell culture medium in row […] for duplicate determinations, 1:2 dilutions are carried out with 50 μl portions of medium up to row 11 of the 96-well plate. The wells in rows 1 and 12 each contain 50 μl of medium. Then 150 μl of a suspension of 1×10^4 cells (human prepuce fibroblasts [NHDF]) are pipetted into each of the wells (row 1=cell control) and, in rows 2-12, a mixture of HCMV-infected and uninfected NHDF cells (M.O.I.=0.001-0.002), i.e. 1-2 infected cells per 1000 uninfected cells. Row 12 (without substance) serves as virus control. The final test concentrations are 250-0.0005 μM. The plates are incubated at 37° C./5% CO2 for 6 days, i.e. until all the cells in the virus controls are infected (100% cytopathogenic effect [CPE]). The wells are then fixed and stained by adding a mixture of formalin and Giemsa's dye (30 minutes), washed with double-distilled water and dried in a drying oven at 50° C. The plates are then assessed visually using an overhead microscope (Plaque Multiplier from Technomara). The following data can be acquired from the test plates: EC50 (HCMV)=substance concentration in μM which inhibits the CPE (cytopathic effect) by 50% compared with the untreated virus control; SI (selectivity index)=CC50 (NHDF)/EC50 (HCMV).
On the technique in general: Damage to the host cells serves as the signal in cytopathic effect assays.

Here are results for five molecules from patent US7919489B2, “Heterocyclyamide-substituted imidazoles” (Aicuris GmbH & Co. KG, priority 2005, dated 2011).

For orientation: CC50 means the concentration that lowers cell viability or growth by half. A lower CC50 goes with greater toxicity to the cells. Broadly, the EC50 is the concentration needed to bring the measured effect to its halfway point. Higher therefore signals a need for much substance.

As to `Cn1cc(NC(=O)Nc2ccc(OC(F)(F)F)cc2)nc1C(=O)N1CCN(c2ccccn2)CC1` [Example 1, N-{1-Methyl-2-[(4-pyridin-2-ylpiperazin-1-yl)carbonyl]-1H-imidazol-4-yl}-N′-[4-(trifluoromethoxy)phenyl]urea], in series [1], the half-maximal cytotoxic concentration (CC50) at 6 days is 43500 nM. In the series with HCMV, the “SI HCMV (selectivity index = CC50 (NHDF)/EC50 (HCMV))” value was determined as 14500 and the EC50 came to 3 nM.

As to `Cc1ccc(N2CCN(C(=O)c3nc(NC(=O)Nc4ccc(OC(F)(F)F)cc4)cn3C)CC2)nc1` [Example 2, N-(1-Methyl-2-{[4-(5-methylpyridin-2-yl)piperazin-1-yl]carbonyl}-1H-imidazol-4-yl)-N′-[4-(trifluoromethoxy)phenyl]urea], the CC50 at 6 days in series [1] is 10900 nM. Besides, in the series with HCMV, the “SI HCMV (selectivity index = CC50 (NHDF)/EC50 (HCMV))” value came out at 14530 and a half-maximal effect (EC50) was put at 0.75 nM.

For the molecule `Cn1cc(NC(=O)Nc2ccc(OC(F)(F)F)cc2)nc1C(=O)N1CCN(c2ccc(C#N)cn2)CC1` [Example 25], it took 12500 nM to reach half-maximal cytotoxicity in series [1] (CC50 at 6 days). Further, in the series with HCMV, the “SI HCMV (selectivity index = CC50 (NHDF)/EC50 (HCMV))” value came to 2600 and a half-maximal response (EC50) required 4.8 nM.

In the case of `COc1ccc(N2CCN(C(=O)c3nc(NC(=O)Nc4ccc(OC(F)(F)F)cc4)cn3C)CC2)nc1` [Example 29], in series [1], the CC50 at 6 days amounted to 34000 nM. Moreover, in the series with HCMV, the “SI HCMV (selectivity index = CC50 (NHDF)/EC50 (HCMV))” value is 35790 and the midpoint of the response, the EC50, lay at 0.95 nM.

Molecule `Cc1ccc(N2CCN(C(=O)c3nc(NC(=O)Nc4ccc(OC(F)(F)F)cc4)cn3CC3CC3)CC2)nc1` [Example 32] displayed a CC50 at 6 days in series [1] of 5300 nM. Also, in the series with HCMV, the “SI HCMV (selectivity index = CC50 (NHDF)/EC50 (HCMV))” value is 6240 and the concentration giving a half-maximal response (EC50) is 0.85 nM.
